Laboratory results from PubChem BioAssay AID1963851 (Molecular Pharmacology Branch, DTP, NCI, 2024).

Test system: 188146-221-R-J1-PDC complex spheroid viability
Assay: Anticancer human tumor 188146-221-R-J1-PDC patient-derived colon adenocarcinoma cell line growth inhibition [POLQ]
Details: for IC50: curve of first compound; for viability, T/C: stronger effect = lower value
Method in brief: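 Patient-derived tumour cells were co-cultured with HUVEC and mesenchymal stem cells as multicellular spheroids at 37 °C. They were treated with POLQ inhibitors (novobiocin, ART-558, RP6685) alone or combined with other agents. Top concentrations were at or near clinical Cmax (otherwise 10 microM; SN-38 at 1 microM), decreasing in half-log steps.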

[1] = second compound 0.0316 µM, first compound 0.0316 µM
[2] = second compound 0.0316 µM, first compound 0.1 µM
[3] = second compound 0.0316 µM, first compound 0.316 µM
[4] = second compound 0.0316 µM, first compound 1 µM
[5] = second compound 0.0316 µM, first compound 3.16 µM
[6] = second compound 0.0316 µM, first compound 10 µM
[7] = second compound 0.1 µM, first compound 0.0316 µM
[8] = second compound 0.1 µM, first compound 0.1 µM
[9] = second compound 0.1 µM, first compound 0.316 µM
[10] = second compound 0.1 µM, first compound 1 µM
[11] = second compound 0.1 µM, first compound 3.16 µM
[12] = second compound 0.1 µM, first compound 10 µM
[13] = second compound 0.316 µM, first compound 0.0316 µM
[14] = second compound 0.316 µM, first compound 0.1 µM
[15] = second compound 0.316 µM, first compound 0.316 µM
[16] = second compound 0.316 µM, first compound 1 µM
[17] = second compound 0.316 µM, first compound 3.16 µM
[18] = second compound 0.316 µM, first compound 10 µM
[19] = second compound 1 µM, first compound 0.0316 µM
[20] = second compound 1 µM, first compound 0.1 µM
[21] = second compound 1 µM, first compound 0.316 µM
[22] = second compound 1 µM, first compound 1 µM
[23] = second compound 1 µM, first compound 3.16 µM
[24] = second compound 1 µM, first compound 10 µM
[25] = second compound 3.16 µM, first compound 0.0316 µM
[26] = second compound 3.16 µM, first compound 0.1 µM
[27] = second compound 3.16 µM, first compound 0.316 µM
[28] = second compound 3.16 µM, first compound 1 µM
[29] = second compound 3.16 µM, first compound 3.16 µM
[30] = second compound 3.16 µM, first compound 10 µM
[31] = second compound 10 µM, first compound 0.0316 µM
[32] = second compound 10 µM, first compound 0.1 µM
[33] = second compound 10 µM, first compound 0.316 µM
[34] = second compound 10 µM, first compound 1 µM
[35] = second compound 10 µM, first compound 3.16 µM
[36] = second compound 10 µM, first compound 10 µM
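Further: spheroids exposed to compounds for seven days.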
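Wherever viability, T/C is given: 100% = DMSO vehicle control viability.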

**Q.** `O=C(Nc1ccc(O)c(NS(=O)(=O)c2ccc(F)cc2)c1)c1ccc(-c2ccccc2)cc1` + Nc1ccc(C#CCN(C(=O)Cc2ncc(C(F)(F)F)cc2C(F)(F)F)c2ccc(F)cc2)nn1 was tested. Which IC50 (second compound 0.0316 µM) did it give?
**A.** > 10 µM

**Q.** What about the IC50 (second compound 0.1 µM) of the same compound?
**A.** > 10 µM

**Q.** What about the IC50 (second compound 0.316 µM) of the same compound?
**A.** > 10 µM

**Q.** And the IC50 (second compound 1 µM)?
**A.** > 10 µM

**Q.** And the IC50 (second compound 3.16 µM)?
**A.** > 10 µM

**Q.** What about the IC50 (second compound 10 µM) of the same compound?
**A.** > 10 µM

**Q.** And the viability, T/C [1]?
**A.** 104%

**Q.** What about the viability, T/C [2] of the same compound?
**A.** 100%

**Q.** What about the viability, T/C [3] of the same compound?
**A.** 88%

**Q.** What about the viability, T/C [4] of the same compound?
**A.** 109%

**Q.** What about the viability, T/C [5] of the same compound?
**A.** 92.7%

**Q.** What about the viability, T/C [6] of the same compound?
**A.** 72%

**Q.** And the viability, T/C [7]?
**A.** 105%

**Q.** What about the viability, T/C [8] of the same compound?
**A.** 119%

**Q.** And the viability, T/C [9]?
**A.** 109%

**Q.** What about the viability, T/C [10] of the same compound?
**A.** 104%

**Q.** What about the viability, T/C [11] of the same compound?
**A.** 88.9%

**Q.** What about the viability, T/C [12] of the same compound?
**A.** 63.6%

**Q.** And the viability, T/C [13]?
**A.** 119%

**Q.** What about the viability, T/C [14] of the same compound?
**A.** 100%

**Q.** What about the viability, T/C [15] of the same compound?
**A.** 93.5%

**Q.** And the viability, T/C [16]?
**A.** 92%

**Q.** What about the viability, T/C [17] of the same compound?
**A.** 93.6%

**Q.** What about the viability, T/C [18] of the same compound?
**A.** 60.1%

**Q.** And the viability, T/C [19]?
**A.** 124%

**Q.** What about the viability, T/C [20] of the same compound?
**A.** 112%

**Q.** What about the viability, T/C [21] of the same compound?
**A.** 108%

**Q.** What about the viability, T/C [22] of the same compound?
**A.** 79.7%

**Q.** And the viability, T/C [23]?
**A.** 97.8%

**Q.** What about the viability, T/C [24] of the same compound?
**A.** 73.2%

**Q.** What about the viability, T/C [25] of the same compound?
**A.** 111%

**Q.** And the viability, T/C [26]?
**A.** 110%

**Q.** What about the viability, T/C [27] of the same compound?
**A.** 118%

**Q.** What about the viability, T/C [28] of the same compound?
**A.** 99.9%

**Q.** And the viability, T/C [29]?
**A.** 107%

**Q.** And the viability, T/C [30]?
**A.** 60.1%

**Q.** What about the viability, T/C [31] of the same compound?
**A.** 111%

**Q.** What about the viability, T/C [32] of the same compound?
**A.** 118%

**Q.** And the viability, T/C [33]?
**A.** 110%

**Q.** And the viability, T/C [34]?
**A.** 99.1%

**Q.** And the viability, T/C [35]?
**A.** 110%

**Q.** And the viability, T/C [36]?
**A.** 68.6%

**Q.** With `CCc1cc2c(N3CCc4c(cc(Cn5ccnc5)cc4-c4cn(C)nc4C(F)(F)F)C3=O)cc(C)nc2c(OC)n1` + Cc1cccc(N(C)C(=O)C2C(O)CCN2c2nc(C)cc(C(F)(F)F)c2C#N)c1 as the compound, how does the IC50 (second compound 0.0316 µM) read?
**A.** 7.64 µM

**Q.** And the IC50 (second compound 0.1 µM)?
**A.** 6.71 µM

**Q.** What about the IC50 (second compound 0.316 µM) of the same compound?
**A.** 6.91 µM

**Q.** And the IC50 (second compound 1 µM)?
**A.** 7.65 µM

**Q.** What about the IC50 (second compound 3.16 µM) of the same compound?
**A.** 6.58 µM

**Q.** And the IC50 (second compound 10 µM)?
**A.** 5.43 µM

**Q.** What about the viability, T/C [1] of the same compound?
**A.** 105%

**Q.** And the viability, T/C [2]?
**A.** 90.4%

**Q.** And the viability, T/C [3]?
**A.** 87%

**Q.** What about the viability, T/C [4] of the same compound?
**A.** 84.9%

**Q.** What about the viability, T/C [5] of the same compound?
**A.** 65.7%

**Q.** And the viability, T/C [6]?
**A.** 44.5%

**Q.** What about the viability, T/C [7] of the same compound?
**A.** 95.9%

**Q.** And the viability, T/C [8]?
**A.** 90.9%

**Q.** And the viability, T/C [9]?
**A.** 96%

**Q.** And the viability, T/C [10]?
**A.** 86.4%

**Q.** And the viability, T/C [11]?
**A.** 68.4%

**Q.** And the viability, T/C [12]?
**A.** 40.3%

**Q.** And the viability, T/C [13]?
**A.** 112%

**Q.** And the viability, T/C [14]?
**A.** 94%

**Q.** And the viability, T/C [15]?
**A.** 106%

**Q.** And the viability, T/C [16]?
**A.** 98.2%

**Q.** What about the viability, T/C [17] of the same compound?
**A.** 67%

**Q.** What about the viability, T/C [18] of the same compound?
**A.** 41.9%

**Q.** What about the viability, T/C [19] of the same compound?
**A.** 93.8%

**Q.** What about the viability, T/C [20] of the same compound?
**A.** 87.3%

**Q.** And the viability, T/C [21]?
**A.** 107%

**Q.** And the viability, T/C [22]?
**A.** 88.5%

**Q.** And the viability, T/C [23]?
**A.** 72.9%

**Q.** And the viability, T/C [24]?
**A.** 43.1%

**Q.** And the viability, T/C [25]?
**A.** 101%

**Q.** And the viability, T/C [26]?
**A.** 100%

**Q.** And the viability, T/C [27]?
**A.** 94.4%

**Q.** What about the viability, T/C [28] of the same compound?
**A.** 81.9%

**Q.** And the viability, T/C [29]?
**A.** 65.3%

**Q.** And the viability, T/C [30]?
**A.** 41.4%

**Q.** What about the viability, T/C [31] of the same compound?
**A.** 97.2%

**Q.** And the viability, T/C [32]?
**A.** 95.7%

**Q.** And the viability, T/C [33]?
**A.** 96.7%

**Q.** What about the viability, T/C [34] of the same compound?
**A.** 71.1%

**Q.** What about the viability, T/C [35] of the same compound?
**A.** 64.9%

**Q.** What about the viability, T/C [36] of the same compound?
**A.** 36.6%

**Q.** For `C=CC(=O)N1CCN(c2nc(=O)n(-c3c(C)ccnc3C(C)C)c3nc(-c4c(O)cccc4F)c(F)cc23)C(C)C1` (stereo unspecified) + Cc1cccc(N(C)C(=O)C2C(O)CCN2c2nc(C)cc(C(F)(F)F)c2C#N)c1, which IC50 (second compound 0.0316 µM) is on record?
**A.** > 10 µM

**Q.** What about the IC50 (second compound 0.1 µM) of the same compound?
**A.** > 10 µM

**Q.** And the IC50 (second compound 0.316 µM)?
**A.** > 10 µM

**Q.** And the IC50 (second compound 1 µM)?
**A.** > 10 µM

**Q.** And the IC50 (second compound 3.16 µM)?
**A.** > 10 µM

**Q.** And the IC50 (second compound 10 µM)?
**A.** > 10 µM

**Q.** What about the viability, T/C [1] of the same compound?
**A.** 104%

**Q.** And the viability, T/C [2]?
**A.** 103%

**Q.** What about the viability, T/C [3] of the same compound?
**A.** 93%

**Q.** And the viability, T/C [4]?
**A.** 107%

**Q.** And the viability, T/C [5]?
**A.** 97%

**Q.** And the viability, T/C [6]?
**A.** 83.8%

**Q.** What about the viability, T/C [7] of the same compound?
**A.** 108%

**Q.** And the viability, T/C [8]?
**A.** 105%

**Q.** What about the viability, T/C [9] of the same compound?
**A.** 91.9%

**Q.** What about the viability, T/C [10] of the same compound?
**A.** 103%

**Q.** What about the viability, T/C [11] of the same compound?
**A.** 92.8%

**Q.** What about the viability, T/C [12] of the same compound?
**A.** 89%

**Q.** What about the viability, T/C [13] of the same compound?
**A.** 101%

**Q.** What about the viability, T/C [14] of the same compound?
**A.** 105%

**Q.** What about the viability, T/C [15] of the same compound?
**A.** 103%

**Q.** And the viability, T/C [16]?
**A.** 95.5%

**Q.** What about the viability, T/C [17] of the same compound?
**A.** 85.9%

**Q.** And the viability, T/C [18]?
**A.** 81.5%

**Q.** And the viability, T/C [19]?
**A.** 95.6%

**Q.** What about the viability, T/C [20] of the same compound?
**A.** 107%

**Q.** What about the viability, T/C [21] of the same compound?
**A.** 102%

**Q.** What about the viability, T/C [22] of the same compound?
**A.** 104%

**Q.** And the viability, T/C [23]?
**A.** 84.7%

**Q.** What about the viability, T/C [24] of the same compound?
**A.** 73.3%

**Q.** What about the viability, T/C [25] of the same compound?
**A.** 98.7%

**Q.** What about the viability, T/C [26] of the same compound?
**A.** 104%

**Q.** What about the viability, T/C [27] of the same compound?
**A.** 97.3%

**Q.** And the viability, T/C [28]?
**A.** 100%

**Q.** What about the viability, T/C [29] of the same compound?
**A.** 94.6%

**Q.** What about the viability, T/C [30] of the same compound?
**A.** 83.4%

**Q.** And the viability, T/C [31]?
**A.** 100%

**Q.** And the viability, T/C [32]?
**A.** 82.3%

**Q.** And the viability, T/C [33]?
**A.** 91.8%

**Q.** And the viability, T/C [34]?
**A.** 84.8%

**Q.** What about the viability, T/C [35] of the same compound?
**A.** 92.6%

**Q.** What about the viability, T/C [36] of the same compound?
**A.** 77.2%
